Test results published in ChEMBL document CHEMBL5376005, “Gut Metabolite Indoxyl Sulfate Has Selective Deleterious and Anticancer Effect on Colon Cancer Cells” (J Med Chem, 2023).
Structures can show the parent of a compound that is named as a salt. Calls of active or inactive are those of the source. The rule behind the calls is not given here.

Assays:
[1] = Toxicity in wild type BALB/c mouse assessed as reduction in body weight at 100 mM, REC measured after 12 weeks; settings: in vivo, other, 2016 h, 100000 µM
[2] = Toxicity in wild type BALB/c mouse assessed as inflammatory symptoms by measuring change in IL-1beta level at 100 mM, REC measured for 0 to 3 months by ELISA; settings: in vivo, other, 100000 µM, time 0-3 months
HT-29 [3] = experiment: Induction of cell cycle arrest in human HT-29 cells assessed as increase in proportion of cells at G2/M phase at 10 mM incubated for 48 hrs by RNase A/Triton X-100/PI staining based flow cytometry analysis relative to control; assay type: functional
[4] = Toxicity in wild type BALB/c mouse assessed as histological change in rectum at 100 mM, ip measured after 12 weeks by H and E staining based light microscopic analysis; assay type: organism-based; settings: in vivo, 2016 h, 100000 µM
HT-29 [5] = experiment: Induction of DNA damage in human HT-29 cells by comet assay; assay type: functional, cell-based
HCT-116 [6] = experiment: Induction of morphological changes in human HCT-116 cells assessed as formation of intracellular vesicles at 1.25 to 10 mM incubated for 24 to 72 hrs by bright field microscopy analysis; assay type: functional, cell-based; settings: dose 1.25-10 mM, time 24-72 hrs
[7] = Toxicity in wild type BALB/c mouse assessed as inflammatory symptoms by measuring change in IL-17 level at 100 mM, REC measured for 0 to 3 months by ELISA; settings: in vivo, other, 100000 µM, time 0-3 months
Cell membrane [8] = experiment: Induction of membrane integrity loss in human HCT-116 cells assessed as LDH release in supernatant at 10 mM incubated for 48 hrs by absorbance based assay relative to control
[9] = Toxicity in wild type BALB/c mouse assessed as reduction in body weight at 100 mM, ip measured after 12 weeks; assay type: organism-based; settings: in vivo, 2016 h, 100000 µM
Cell membrane [10] = experiment: Induction of membrane integrity loss in human HT-29 cells assessed as increase in LDH release in supernatant incubated for 48 hrs by absorbance based assay; assay type: subcellular; settings: dose 1.25-10 mM
HT-29 [11] = experiment: Induction of morphological changes in human HT-29 cells assessed as formation of intracellular vesicles at 1.25 to 10 mM incubated for 24 to 72 hrs by bright field microscopy analysis; assay type: functional, cell-based; settings: dose 1.25-10 mM, time 24-72 hrs
[12] = Toxicity in wild type BALB/c mouse assessed as inflammatory symptoms by measuring change in IL-17 level at 100 mM, ip measured for 0 to 3 months by ELISA; assay type: organism-based; settings: in vivo, 100000 µM, time 0-3 months
HCT-116 [13] = experiment: Induction of apoptosis in human HCT-116 cells assessed as increase in apoptotic cells at 5 mM incubated for 48 hrs by annexin V-FITC/PI staining based flow cytometry analysis (reference value: 3%); assay type: functional
HT-29 [14] = experiment: Cytotoxicity against human HT-29 cells assessed as reduction in cell viability at 0.01 to 10 mM by CellTiter-Glo luminescent cell viability assay; assay type: functional, cell-based; settings: dose 0.01-10 mM, time 48-72 hrs, TDE = time-dependent effect
[15] = Toxicity in wild type BALB/c mouse assessed as inflammatory symptoms by measuring change in IL-1beta level at 100 mM, ip measured for 0 to 3 months by ELISA; assay type: organism-based; settings: in vivo, 100000 µM, time 0-3 months
HCT-116 [16] = experiment: Induction of cell cycle arrest in human HCT-116 cells assessed as increase in proportion of cells at G2/M phase at 10 mM incubated for 48 hrs by RNase A/Triton X-100/PI staining based flow cytometry analysis relative to control; assay type: functional
[17] = Toxicity in wild type BALB/c mouse assessed as inflammatory symptoms by measuring change in TNFalpha level at 100 mM, ip measured for 0 to 3 months by ELISA; assay type: organism-based; settings: in vivo, 100000 µM, time 0-3 months
Cell membrane [18] = experiment: Induction of membrane integrity loss in human HT-29 cells assessed as LDH release in supernatant at 5 mM incubated for 48 hrs by absorbance based assay relative to control; assay type: subcellular
HT-29 [19] = experiment: Cytotoxicity against human HT-29 cells assessed as cell viability at 10 mM measured after 72 hrs by MTT assay (reference value: 100%); assay type: functional; settings: HT-29, 72 h, read-out: Activity
HT-29 [20] = experiment: Cytotoxicity against human HT-29 cells assessed as reduction in cell viability at 0.01 to 10 mM by MTT assay; assay type: functional, cell-based; settings: dose 0.01-10 mM, time 24-72 hrs, TDE = time-dependent effect
HCT-116 [21] = experiment: Cytotoxicity against human HCT-116 cells assessed as reduction in cell viability at 0.01 to 10 mM by MTT assay; assay type: functional, cell-based; settings: dose 0.01-10 mM, time 24-72 hrs, TDE = time-dependent effect
HCT-116 [22] = experiment: Induction of morphological changes in human HCT-116 cells assessed as detachment from substrate at 1.25 to 10 mM incubated for 24 to 72 hrs by bright field microscopy analysis; assay type: functional, cell-based; settings: dose 1.25-10 mM, time 24-72 hrs
HCT-116 [23] = experiment: Cytotoxicity against human HCT-116 cells assessed as cell viability at 10 mM measured after 24 hrs by MTT assay (reference value: 100%); assay type: functional; settings: HCT-116, 24 h, read-out: Activity
Cell membrane [24] = experiment: Induction of membrane integrity loss in human HT-29 cells assessed as LDH release in supernatant at 10 mM incubated for 48 hrs by absorbance based assay relative to control; assay type: subcellular
HT-29 [25] = experiment: Cytotoxicity against human HT-29 cells assessed as reduction in cell viability measured after 48 to 72 hrs by CellTiter-Glo luminescent cell viability assay; assay type: functional, cell-based; settings: dose 0.01-10 mM, time 48-72 hrs
[26] = Toxicity in wild type BALB/c mouse assessed as change in spleen length at 100 mM, ip measured after 12 weeks; assay type: organism-based; settings: in vivo, 2016 h, 100000 µM
HT-29 [27] = experiment: Induction of morphological changes in human HT-29 cells assessed as appearance of rounded morphology at 1.25 to 10 mM incubated for 24 to 72 hrs by bright field microscopy analysis; assay type: functional, cell-based; settings: dose 1.25-10 mM, time 24-72 hrs
HCT-116 [28] = experiment: Induction of DNA damage in human HCT-116 cells by comet assay; assay type: functional, cell-based
HCT-116 [29] = experiment: Induction of morphological changes in human HCT-116 cells assessed as reduction in cell number at 1.25 to 10 mM incubated for 24 to 72 hrs by bright field microscopy analysis; assay type: functional, cell-based; settings: dose 1.25-10 mM, time 24-72 hrs
[30] = Toxicity in wild type BALB/c mouse assessed as histological change in colon at 100 mM, REC measured after 12 weeks by H and E staining based light microscopic analysis; assay type: tissue-based; settings: in vivo, other, 2016 h, 100000 µM
HT-29 [31] = experiment: Induction of apoptosis in human HT-29 cells assessed as increase in apoptotic cells at 10 mM incubated for 48 hrs by annexin V-FITC/PI staining based flow cytometry analysis (reference value: 3%); assay type: functional
HT-29 [32] = experiment: Induction of cell cycle arrest in human HT-29 cells assessed as increase in proportion of cells at G2/M phase incubated for 48 hrs by RNase A/Triton X-100/PI staining based flow cytometry analysis; assay type: functional; settings: dose 1.25-10 mM
HCT-116 [33] = experiment: Cytotoxicity against human HCT-116 cells assessed as reduction in cell viability measured after 48 to 72 hrs by CellTiter-Glo luminescent cell viability assay; assay type: functional, cell-based; settings: dose 0.01-10 mM, time 48-72 hrs

In the case of `O=S(=O)(O)Oc1c[nH]c2ccccc12` [INDOXYL SULFATE], the Activity [1] is reported as “Non-Toxic”, the Activity [2] is reported as “Non-Toxic” and the Activity (HT-29 [3]) is reported as 17.3%. For the same compound, the Activity [4] was “Non-Toxic”, the Activity (HT-29 [5]) was “inactive” and the Activity (HCT-116 [6]) was “Active”. The Activity [7] was “Non-Toxic”, the Activity (Cell membrane [8]) was 86% and the Activity [9] was “Non-Toxic”. The Activity (Cell membrane [10]) was “Dose-Dependent Effect”, the Activity (HT-29 [11]) was “Active” and the Activity [12] was “Non-Toxic”. For the same compound, the Activity (HCT-116 [13]) was 9%, the Activity (HT-29 [14]) was “Tde” and the Activity [15] was “Non-Toxic”. The Activity (HCT-116 [16]) was 22.7%, the Activity [17] was “Non-Toxic” and the Activity (Cell membrane [18]) was 82%. For the same compound, the viability at 10000 µM (HT-29 [19]) was 17%, the Activity (HT-29 [20]) was “Tde” and the Activity (HCT-116 [21]) was “Tde”. For the same compound, the Activity (HCT-116 [22]) was “Active”, the viability at 10000 µM (HCT-116 [23]) was 30% and the Activity (Cell membrane [24]) was 85%. The Activity (HT-29 [25]) was “Dose-Dependent Effect”, the Activity [26] was “Non-Toxic” and the Activity (HT-29 [27]) was “Active”. For the same compound, the Activity (HCT-116 [28]) was “inactive”, the Activity (HCT-116 [29]) was “Active” and the Activity [30] was “Non-Toxic”. For the same compound, the Activity (HT-29 [31]) was 12%, the Activity (HT-29 [32]) was “Dose-Dependent Effect” and the Activity (HCT-116 [33]) was “Dose-Dependent Effect”.
